Residues, ends and D or L forms follow the SMILES beside them.
Legend:
Format in all cases: cell-based, human
MMP-9 = test: Gelatin zymography of conditioned media, MMP-9 production; details: compared to control containing no peptide
Description: To assess whether the peptide SEQ ID NO.1 impacted MMP-2, MMP-9 and uPA production Zymography was used.
Zymography is a technique for studying hydrolytic enzymes on the basis of substrate degradation. The in-gel zymography hydrolytic enzymes are separated by their molecular weights and detected by their ability to degrade a substrate. To detect the activity of MMP-2 and MMP-9 in various cell lines, conditioned media were collected in 3 independent experiments and analysed by gelatin zymography to quantify the level of gelatin digestion, which reflects MMP-2 and MMP-9 activity and production. Casein-Plasminogen zymography was conducted to determine the activity level of uPA in the conditioned medium from various cell lines. Active uPA converts plasminogen into plasmin which then digests casein, thus clear bands where digestion of casein have occurred indirectly represent uPA activity.
The effect of the peptides on matrix protease production was tested using in-gel zymography. If the substrate included in the gel is gelatin, the enzymes detected are gelatinases: MMP-2 and MMP-9 (the latter is often of low abundance). If the gel contains casein and plasminogen, the enzymes tested are urokinase plasminogen activators (uPA); uPA is a therapeutic target in GBM.
An equal amount of protein from each sample was mixed with 5 μL of Laemmli buffer (0.01% Bromophenol Blue (W/V), 5% SDS (W/V), 22% glycerol (V/V), 14% 0.5 M Tris pH 6.8 (V/V)) and loaded onto a 10% polyacrylamide gel co-polymerized with 1 mg/ml of gelatin, and electrophoresed at 120 V for 2 hours on ice. The gel was incubated in […] solution (Triton X-100 2.5% (V/V), 1 M Tris pH 7.5 5% (V/V), 0.5 M CaCl2 1% (W/V) at room temperature overnight on an orbital shaker. The gel was incubated in a second solution for 3 hours at 37° C. The gel was then stained with Coomassie blue solution (Coomassie blue 0.25%, methanol 45%, acetic acid 10%) and destained in methanol 25% (V/V), acetic acid 10% (V/V) destaining solution until clear bands against the dark background appeared around 72 kDa and 95 kDa, representing MMP-2 and MMP-9 activity, respectively. Clear bands around 50 kDa appeared against the dark background representing uPA activity. The gels were scanned, and uPA, MMP-2 and MMP-9 were quantified by densitometry using NIH Image J software.
SEQ ID NO.1 was compared to a control containing no peptide to evaluate whether the peptide can reduce the production of matrix proteinases. A reduction in the production of matrix proteinases may be anticipated to result in comparatively less degradation of the extra-cellular matrix and so this could be one pathway by which the invasion potential could be reduced. […] This could be confirmed using a MMP-9 quantification kit, and altered production by a transcriptional mechanism can be unveiled using qRT-PCR.

Snail-2 mRNA = test: Real time RT-PCR, Snail-2 mRNA expression
Description: (§1) The real-time reverse transcription polymerase chain reaction (RT-PCR) uses fluorescent reporter molecules to monitor the production of amplification products during each cycle of the PCR reaction. This combines the nucleic acid amplification and detection steps into one homogeneous assay and use of appropriate chemistries and data analysis eliminates the need for Southern blotting or DNA sequencing for amplicon identification. Its simplicity, specificity and sensitivity, together with its potential for high throughput and the ongoing introduction of new chemistries, more reliable instrumentation and improved protocols, has made real-time RT-PCR the benchmark technology for the detection and/or comparison of RNA levels.’
(§2) In order to detect and quantify the expression of specific genes at mRNA level, real-time reverse transcriptase polymerase chain reaction (Real time RT-PCR) was performed. Total RNA of samples was isolated and purified using the PureLink® RNA Mini Kit (Life technologies). The concentration of total RNA was detected by NanoDrop 2000 Spectrophotometer (Thermo Scientific). The total RNA (2000 ng) was reverse transcribed using the High-Capacity cDNA Reverse Transcription Kit (Applied Biosystems™).
(§3) The primers of target genes were TaqMan™ Gene Expression Assay for human PLAU (Hs01547054_m1), MMP-2 (Hs01548727_m1), MMP-9 (Hs00957562_m1), Snail-1 (Hs00195591_m1), Snail-2 (Hs00161904_m1), N-cadherin (Hs00983056_m1) and Twist (Hs01675818_s1). Relative quantification was done by reference to 18S ribosomal RNA (18S rRNA) and analysed using the comparative critical threshold (Ct) method
(§4) The mRNA expression of MMPs was measured using qRT-PCR. This was tested three independent times; the results are shown in Tables 9, 10 and 11 for U251, U87 cells and O81024 cells respectively. Results are reported as percent of the control cells (no treatment). Both MMP-2 and uPA were decreased in U251 by SEQ ID NO.1.
(§5) Epithelial-mesenchymal transition (EMT) is the process by which epithelial cells acquire a migratory (metastatic) phenotype and so EMT is associated with cancer metastasis, cancer cell stemness, chemoresistance and immune resistance. Therefore, the determination of the mRNA expression of EMT markers is a valuable tool to evaluate invasion potential of cancer cells.
(§6) The ‘Snail’ superfamily is involved in cell differentiation and survival, two processes central in cancer research. Snail-1 has a pivotal role in the regulation of epithelial-mesenchymal transition (EMT) and Snail-1 expression is associated with poor prognosis in metastatic cancer, and tumours with elevated Snail-1 expression are harder to treat. […]

MMP-2 mRNA = test: Real time RT-PCR, MMP-2 mRNA expression
Description: as §1, §2, §3, §4

CDH-2 (N-cadherin) mRNA = test: Real time RT-PCR, CDH-2 (N-cadherin) mRNA expression
Description: as §1, §2, §3, §4, §5, §6

MMP-9 mRNA = test: Real time RT-PCR, MMP-9 mRNA expression
Description: as §1, §2, §3, §4

[1] = 081024 cells, baseline expression level = 1
[2] = U87 cells, baseline expression level = 1
[3] = U251 cells, relative to control (no treatment)

`CC(C)C[C@@H]1NC(=O)[C@H](C)NC(=O)[C@@H](NC(=O)[C@@H]2CCCN2C(=O)[C@@H](N)CC(C)C)CSSC(C)(C)CNC(=O)CC[C@@H](C(=O)N[C@@H](CCCNC(=N)N)C(N)=O)NC(=O)[C@H](CC(=O)O)NC(=O)[C@H](CC(N)=O)NC1=O` [SEQ ID NO: 1, Leu-Pro-c(SSA*-Ala-Leu-Asn-Asp-Glu)-Arg-NH2] (HELM PEPTIDE1{L.P.C.A.L.N.D.E.R.[am]}|CHEM1{[CC(C)(CN[*:2])S[*:1]]}$PEPTIDE1,CHEM1,3:R3-1:R1|PEPTIDE1,CHEM1,8:R3-1:R2$$$V2.0; N-terminus assumed) was tested, and the “metalloprotease production, MMP-9” value (MMP-9; 081024 cells) was 98.96, the “metalloprotease production, MMP-9” value (MMP-9; U87 cells, listed as SEQ ID NO. 1) was 58.61 and the “metalloprotease production, MMP-9” value (MMP-9; U87 cells, listed as SEQ ID NO.1) was “decreased production”. For the same compound, the “metalloprotease production, MMP-9” value (MMP-9; U251 cells, listed as SEQ ID NO. 1) was 63.4, the “metalloprotease production, MMP-9” value (MMP-9; U251 cells, listed as SEQ ID NO.1) was “decreased production” and the “mRNA expression, Snail-2” value (Snail-2 mRNA; [1]) was 1.01. For the same compound, the “mRNA expression, Snail-2” value (Snail-2 mRNA; [2]) was 0.94, the “mRNA expression, Snail-2” value (Snail-2 mRNA; [3]) was 0.75 and the “mRNA expression, Snail-2 (in words)” value (Snail-2 mRNA; cell line not specified) was “non-statistical decrease in expression”. The “mRNA expression, MMP-2” value (MMP-2 mRNA; [1]) was 0.91, the “mRNA expression, MMP-2” value (MMP-2 mRNA; [2]) was 0.84 and the “mRNA expression, MMP-2” value (MMP-2 mRNA; U251 cells, relative to control (no treatment), listed as SEQ ID NO. 1) was 0.72. The “mRNA expression, MMP-2” value (MMP-2 mRNA; U251 cells, relative to control (no treatment), listed as SEQ ID NO.1) was “decreased”, the “mRNA expression, CDH-2” value (CDH-2 (N-cadherin) mRNA; [1]) was 0.91 and the “mRNA expression, CDH-2” value (CDH-2 (N-cadherin) mRNA; [2]) was 0.98. For the same compound, the “mRNA expression, CDH-2” value (CDH-2 (N-cadherin) mRNA; [3]) was 0.82, the “mRNA expression, CDH-2 (in words)” value (CDH-2 (N-cadherin) mRNA; cell line not specified) was “non-statistical decrease in expression” and the “mRNA expression, MMP-9” value (MMP-9 mRNA; [1]) was 0.63. For the same compound, the “mRNA expression, MMP-9” value (MMP-9 mRNA; [2]) was 0.66 and the “mRNA expression, MMP-9” value (MMP-9 mRNA; [3]) was 0.73.

— patent US20240059740A1, “CYCLIC PEPTIDES AND USES THEREOF” (PRE[…] INC., priority 2020, published 2024)
